Drawing on patent US20130096305A1, “[…] […]” (priority 2010, published 2013), this text covers EC50 for twelve compounds.

Structures are written as SMILES.

The subject of this assay is HIV-1 LAI envelope single-round infectious reporter virus. Briefly: Single-round infectious luciferase reporter virus infection of MT2 cells. The assay is classed as cell-based. The note with it: Human immunodeficiency virus 1, MT2, 72 h. An excerpt:
• Virus production—Human embryonic Kidney cell line, 293T (HEK 293T), was propagated in Dulbecco's Modified Eagle Medium (Invitrogen, Carlsbad, Calif.) containing 10% fetal Bovine serum (FBS, Sigma, St. Louis, Mo.). The human T-cell leukemia cell MT2 (AIDS Research and Reference Reagent Program, Cat. 237) was propagated in RPMI 1640 (Invitrogen, Carlsbad, Calif.) containing 10% fetal bovine serum (FBS, Hyclone, Logan, Utah) • Virus infection—Single-round infectious reporter virus was produced by co-transfecting HEK 293T cells with plasmide expressing the HIV-1 LAI envelope along with a plasmid containing an HIV-1 LAI proviral cDNA with the envelope gene replaced by a firefly luciferase reporter gene (Chen et al, Ref 41). Transfections were performed using lipofectAMINE PLUS reagent as described by the manufacturer (Invitrogen, Carlsbad, Calif.).
• 1. MT2 cells were plated in black, 384 well plates at a cell density of 5×10^3 cells per well in 25 μl RPMI 1640 containing 10% FBS. • 2. Compound (diluted in dimethylsulfoxide and growth medium) was added to cells at 12.5 μl/well, so that the final assay concentration would be ≦50 nM. • 3. 12.5 μl of single-round infectious reporter virus in Dulbecco's Modified Eagle Medium was added to the plated cells and compound at an approximate multiplicity of infection (MOI) of 0.01, resulting in a final volume of 50 μl per well. • 4. Virus-infected cells were incubated at 37 degrees Celsius, in a CO2 incubator, and harvested 72 h after infection. • 5. Viral infection was monitored by measuring luciferase expression in the infected cells using a luciferase reporter gene assay kit (Steady-Glo, Promega, Madison, Wis.) as described by the manufacturer. Luciferase activity was then quantified by measuring luminescence using an EnVision Multilabel Plate Readers (PerkinElmer, Waltham, Mass.). • 6. The percent inhibition for each compound was calculated by quantifying the level of luciferase expression in cells infected in the presence of each compound as a percentage of that observed for cells infected in the absence of compound and subtracting such a determined value from 100. • 7. An EC50 provides a method for comparing the antiviral potency of the compounds of this disclosure. The effective concentration for fifty percent inhibition (EC50) was calculated with the Microsoft Excel Xlfit curve fitting software. For each compound, curves were generated from percent inhibition calculated at 10 different concentrations by using a four paramenter logistic model (model 205).
On the technique in general: Reporter assays use an easily measured gene product as a stand-in for the process of interest.
As a reminder, the EC50 is the concentration at which the effect is half-maximal. `[2H]C1([2H])N(C(=O)C(=O)c2c[nH]c3c(OC)ncc(OC)c23)C([2H])([2H])C([2H])([2H])N(C(=O)c2ccccc2)C1([2H])[2H]` [Compound 0003]: the response was half-maximal at 0.55 nM (EC50).

As to `[2H]c1c([2H])c([2H])c(C(=O)N2CCN(C(=O)C(=O)c3c[nH]c4c(-n5ccnn5)ncc(OC)c34)CC2)c([2H])c1[2H]` [Compound 0005], the midpoint of the response, the EC50, lay at 0.24 nM.

Consider `[2H]c1c([2H])c([2H])c(C(=O)N2C([2H])([2H])C([2H])([2H])N(C(=O)C(=O)c3c[nH]c4c(-n5ccnn5)ncc(F)c34)C([2H])([2H])C2([2H])[2H])c([2H])c1[2H]` [Compound 0007], for which the EC50 was 0.11 nM.

`[2H]C1([2H])N(C(=O)C(=O)c2c[nH]c3c(-n4cnc(C)n4)ncc(OC)c23)C([2H])([2H])C([2H])([2H])N(C(=O)c2ccccc2)C1([2H])[2H]` [Compound 0012]: it took 0.07 nM to reach a half-maximal effect (EC50).

In turn, `[2H]c1c([2H])c([2H])c(C(=O)N2C([2H])([2H])C([2H])([2H])N(C(=O)C(=O)c3c[nH]c4c(-n5ccnn5)ncc(OC)c34)C([2H])([2H])C2([2H])[2H])c([2H])c1[2H]` [Compound 0004] gave an EC50 of 0.1 nM.

With `[2H]c1c([2H])c([2H])c(C(=O)N2CCN(C(=O)C(=O)c3c[nH]c4c(-n5ccnn5)ncc(F)c34)CC2)c([2H])c1[2H]` [Compound 0008], the EC50 was determined as 0.1 nM.

`[2H]c1c([2H])c([2H])c(C(=O)N2C([2H])([2H])C([2H])([2H])N(C(=O)C(=O)c3c[nH]c4c(OC)ncc(OC)c34)C([2H])([2H])C2([2H])[2H])c([2H])c1[2H]` [Compound 0001] showed an EC50 of 0.67 nM.

The compound `[2H]c1c([2H])c([2H])c(C(=O)N2CCN(C(=O)C(=O)c3c[nH]c4c(OC)ncc(OC)c34)CC2)c([2H])c1[2H]` [Compound 0002] gave an EC50 of 0.63 nM.

For `[2H]c1c([2H])c([2H])c(C(=O)N2C([2H])([2H])C([2H])([2H])N(C(=O)C(=O)c3c[nH]c4c(-n5cnc(C)n5)ncc(OC)c34)C([2H])([2H])C2([2H])[2H])c([2H])c1[2H]` [Compound 0010], the EC50 is 0.06 nM.

In the case of `[2H]C1([2H])N(C(=O)C(=O)c2c[nH]c3c(-n4ccnn4)ncc(F)c23)C([2H])([2H])C([2H])([2H])N(C(=O)c2ccccc2)C1([2H])[2H]` [Compound 0009], the EC50 came to 0.14 nM.

In turn, `[2H]C1([2H])N(C(=O)C(=O)c2c[nH]c3c(-n4ccnn4)ncc(OC)c23)C([2H])([2H])C([2H])([2H])N(C(=O)c2ccccc2)C1([2H])[2H]` [Compound 0006] registered an EC50 of 0.08 nM.

`[2H]c1c([2H])c([2H])c(C(=O)N2CCN(C(=O)C(=O)c3c[nH]c4c(-n5cnc(C)n5)ncc(OC)c34)CC2)c([2H])c1[2H]` [Compound 0011] registered an EC50 of 0.12 nM.
